Assay results taken from publication PMC3528345 (Cancer research, 2012).

Target: PARP1 (Gallus gallus, UniProt P26446)
Sequence (P26446 whole entry): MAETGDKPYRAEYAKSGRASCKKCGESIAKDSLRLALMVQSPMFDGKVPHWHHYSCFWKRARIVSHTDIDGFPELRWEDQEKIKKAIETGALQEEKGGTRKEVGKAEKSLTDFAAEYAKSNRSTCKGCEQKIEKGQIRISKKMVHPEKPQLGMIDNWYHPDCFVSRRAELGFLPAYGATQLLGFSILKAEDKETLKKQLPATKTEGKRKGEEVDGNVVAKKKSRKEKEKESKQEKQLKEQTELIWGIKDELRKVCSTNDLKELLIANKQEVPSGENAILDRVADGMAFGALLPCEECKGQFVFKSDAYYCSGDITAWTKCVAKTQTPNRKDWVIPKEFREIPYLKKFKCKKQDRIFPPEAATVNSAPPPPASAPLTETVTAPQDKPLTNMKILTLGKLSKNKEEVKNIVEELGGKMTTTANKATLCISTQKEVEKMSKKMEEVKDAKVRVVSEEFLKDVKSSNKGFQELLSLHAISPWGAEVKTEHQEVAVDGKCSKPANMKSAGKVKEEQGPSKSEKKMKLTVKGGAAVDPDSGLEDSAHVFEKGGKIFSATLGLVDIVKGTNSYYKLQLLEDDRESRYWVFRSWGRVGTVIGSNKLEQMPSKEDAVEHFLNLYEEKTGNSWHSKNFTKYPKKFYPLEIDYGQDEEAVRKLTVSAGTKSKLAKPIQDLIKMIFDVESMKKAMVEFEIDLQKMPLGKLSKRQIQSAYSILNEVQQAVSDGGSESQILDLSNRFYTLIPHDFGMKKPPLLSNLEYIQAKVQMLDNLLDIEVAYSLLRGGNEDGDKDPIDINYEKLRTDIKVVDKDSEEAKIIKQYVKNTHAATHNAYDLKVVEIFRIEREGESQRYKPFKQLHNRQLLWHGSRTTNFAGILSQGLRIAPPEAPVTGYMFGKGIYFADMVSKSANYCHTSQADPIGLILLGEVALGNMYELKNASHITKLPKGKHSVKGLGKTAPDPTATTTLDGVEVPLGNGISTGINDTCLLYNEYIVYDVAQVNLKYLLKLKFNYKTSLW

Compound	IC50
C[C@]1(c2nc3c(C(N)=O)cccc3[nH]2)CCCN1 [veliparib]	10.5 nM
NC(=O)c1cccc2cn(-c3ccc([C@@H]4CCCNC4)cc3)nc12 [MK-4827]	50.5 nM
